The test system of data set [1] is linearized pUC19 plasmid DNA. Description: In vitro DNA cross-linking assay. As to conditions: 100 μM. The data set is classed as biochemical. On the procedure:
Plasmid Linearization Assay. To set up the linearization reactions, 20 units of EcoRI-HF (New England Biolabs) was mixed with 20 μg 2686 bp pUC19 vector DNA in CutSmart buffer (New England Biolabs), pH 7.9, in a total volume of 1000 μL for 30 min at 37° C. The CutSmart buffer contains 50 mM potassium acetate, 20 mM Tris acetate, 10 mM magnesium acetate, and 100 μg/mL BSA. The reacted DNA was then purified using PCR cleanup kit and quantified using the NanoDrop One (Thermo Fisher). The DNA was then stored at −20° C. before use in in vitro DNA cross-linking assays or melting temperature analysis.
In Vitro DNA Cross-linking Assays. Linearized pUC19 DNA, prepared as described above, was used for in vitro DNA cross-linking assays. For each condition, 200 ng of linearized pUC19 DNA (15.4 μM base pairs) was incubated with the indicated concentration of drug in 20 μL. Drug stock concentrations were made in DMSO such that each reaction contained a fixed 5% DMSO concentration. Reactions were conducted in 100 mM Tris buffer (pH 7.4). Cisplatin (Sigma) and DMSO vehicle were used as positive and negative controls, respectively. Reactions were conducted between 3-96 h at 37° C. The DNA was stored at −80° C. until electrophoretic analysis. For gel electrophoresis, DNA concentration was preadjusted to 10 ng/μL. […]

The subject of data set [2] is linearized pUC19 plasmid DNA. Description: Melting temperature assay. As to conditions: 100 or 500 μM for 3 h. The data set is classed as biochemical. As to the method:
Columns, mean; error bars, SD; n=2 independent analyses. For (A) and (C), points, mean; error bars, SD; n=3 technical replicates.
Melting Temperature Assay. Linearized pUC19 DNA (750 ng), prepared as described above, was incubated with the indicated concentration of either MMS or KL-50 adjusted in a final volume of 18 μL in 100 mM Tris buffer (pH 7.4) for 3 h. Drug stock concentrations were made in DMSO such that each reaction contained a fixed 5% DMSO concentration. Afterwards, 1 μL each of 20×SYBR Green dye (Invitrogen) and 20×ROX reference dye (Invitrogen) was added and melting temperature analysis was run on a StepOnePlus RT PCR System (Applied Biosciences) to generate melting temperature curves.

Data set [3] is described as follows: Maximum tolerated dose study in healthy mice. The data set is classed as in vivo. An excerpt:
FIGS. 10A-10G. KL-50 is efficacious in an LN229 MGMT−/MMR− intracranial model and is well tolerated with limited myelosuppression at supratherapeutic doses. […] (FIG. 10B) Mean body change with SEM of mice during maximum tolerated dose experiment in non-tumor bearing mice. (FIGS. 10C-10G) Complete blood counts for mice pre-treatment and 7 days post-treatment with escalations of single dose KL-50 delivered PO. WBC lower limit of normal (LLN): 2.2 K/L; Neutrophils LLN: 0.42 K/L; Lymphocyte LLN: 1.7 K/L; RBC LLN: 3.47 M/L; Platelet LLN: 155 K/L. *, P<0.05; ****, P<0.0001.
Healthy mice were treated with escalating doses of KL-50 (0, 25, 50, 100, and 200 mg/kg x 1 dose), and monitored over time for changes in both weights and hematologic profiles. […]. […]

Data set [4] has as its system large MGMT−/MMR+ and MGMT−/MSH6− LN229 flank tumors. As to the kind of experiment: Flank tumor third study: large tumors. The data set is classed as in vivo, mouse. As to conditions: 25 mg/kg PO MWF x 3 weeks. An excerpt:
FIGS. 9A-91: KL-50 is safe and efficacious on both MGMT−/MMR+ and MGMT−/MMR-flank tumors over a wide range of treatment regimens and conditions. […] (FIG. 9C) Mean body weight of mice during LN229 flank tumor experiments. (FIG. 9D) Kaplan-Meier analysis of LN229 MGMT−/MMR− xenograft flank tumor-bearing mice to determine survival rate based on death, removal from study if mouse body weight loss exceeded 20% of initial body weight, or if tumor volume exceeded 2000 mm^3. […] (FIGS. 9H-91) Xenograft LN229 MGMT−/MMR+ and LN229 MGMT−/MSH6—flank tumors with a larger average starting tumor size of −400 mm^3 and −350 mm^3 respectively, treated with 3 weekly cycles of P.O administration of 10% cyclodextrin (n=4) or KL-50 (n=4, 3 cycles of 25 mg/kg on Monday, Wednesday, and Friday). The study period was limited by control groups which had to be euthanized for exceeding the ethical maximum allowed tumor size, thus ending the study. In all panels, points, mean; error bars, SEM; *, P<0.05; **, P<0.01; ***, P<0.001; ****, P<0.0001; ns, not significant.
The third study involved MGMT−/MMR+ and MGMT−/MSH6—(shMSH6) LN229 cells. Mice tumors were allowed to grow to a larger average starting volume of −350 mm^3 before they were randomized and administered either KL-50 (25 mg/kg MWF×3 weeks) or vehicle (10% cyclodextrin) by oral gavage. […]

As to `NC(=O)c1ncn2c(=O)n(CCF)nnc12` [KL-50], the “ICLs in plasmid DNA” value in data set [1] is given as “possessed ICLs, with delayed rates of formation”. Also, the “change in DNA melting temperature” value in data set [2] is “comparable changes in measured DNA melting temperature”. For the same compound, the “mice observably ill warranting euthanasia” value in data set [3] (200 mg/kg x 1 dose) is recorded as “Two of three mice”. In data set [3] (25, 50, 100 mg/kg x 1 dose), the “toxicity in remaining cohorts” value is on record as “no evidence of toxicity”. The “complete blood counts day 7” value in data set [3] (all cohorts, 0-200 mg/kg single dose PO) is given as “within normal physiological ranges”. For the same compound, the “tolerability, overall” value in data set [3] (escalating single doses) is given as “well-tolerated”. Further, in data set [3] (single dose 100 or 200 mg/kg, regressed to baseline at the end of one week), the “weight loss after treatment administration” value is “greater than 10%”. For the same compound, in data set [4], the “growth of large (350-400 mm^3) tumors” value is “potently suppressed the growth”.

These data come from patent publication US20240294478A1, “ANTI-CANCER COMPOUNDS AND METHODS OF USE” (YALE UNIVERSITY, priority 2021, published 2024).
